Assay results as given in patent US20260248950A1, “ANTIMICROBIAL PEPTIDE DELIVERY SYSTEM AND MANUFACTURING METHOD BASED ON GOLD NANOPARTICLE-APTAMER CONJUGATE” (NES BIOTECHNOLOGY CO., LTD., priority 2022, published 2026).
Values after ≈ are worked out from the molar mass of the structure shown. Read-outs that look alike come from different tables or passages of the source. Peptide text beside a SMILES is read from it. {SH} = thiol modification, used to bind gold nanoparticles

Experiments:
[1] = tested on: Acinetobacter baumannii; assay: microbe, parasite or virus in culture; format: cell-based
Protocol: (§1) An experiment was conducted to determine the minimum inhibitory concentration (MIC) for multi-resistant strains in an antimicrobial activity test. Pseudomonas aeruginosa, Acinetobacter baumannii, and Staphylococcus aureus were cultured in LB medium at 1×10^3 colony-forming units (CFU)/ml. Each strain was treated with WLBU2 peptide and antibiotics, such as ampicillin and erythromycin, at concentrations of 2, 4, 8, 16, 32, 64, 128, 256, and 512 μM, respectively, and then incubated at 37° C. for 18 to 24 hours.
(§2) The minimum inhibitory concentration (MIC) was determined as the […].

[2] = tested on: Pseudomonas aeruginosa; assay: microbe, parasite or virus in culture; format: cell-based
Protocol: as §1, §2

[3] = tested on: Staphylococcus aureus; assay: microbe, parasite or virus in culture; format: cell-based
Protocol: as §1, §2

[4] = tested on: WLBU2; assay: SELEX aptamer selection, sequencing fold change of samples binding to WLBU2 vs control; details: samples binding to WLBU2 compared to the control group; SELEX repeated 11 times
Protocol: Aptamers specific to the antimicrobial peptide WLBU2 were developed using the SELEX (Systematic Evolution of Ligands by Exponential Enrichment) method. The SELEX process was repeated a total of 11 times, and the optimal aptamers with high binding affinity to WLBU2 were selected. The aptamer selection process was conducted according to the procedure illustrated in FIG. 1.
Among all the sequences confirmed through sequencing, four representative sequences showing a fold change greater than 2-fold in the samples binding to WLBU2 compared to the control group were developed.

[5] = Pseudomonas aeruginosa, LB medium, 1×10^3 CFU/ml, 37° C., 18 to 24 hours

`CC1(C)S[C@@H]2[C@H](NC(=O)[C@H](N)c3ccccc3)C(=O)N2[C@H]1C(=O)O` [Ampicillin, ampicillin] gave an MIC ([1]; Acinetobacter baumannii) greater than 256 µM, an MIC [2, 5] greater than 64 µM and an MIC ([3]; Staphylococcus aureus) greater than 256 µM.

`CC(C)[C@H](NC(=O)[C@H](Cc1c[nH]c2ccccc12)NC(=O)[C@H](CCCNC(=N)N)NC(=O)[C@H](CCCNC(=N)N)NC(=O)[C@@H](NC(=O)[C@@H](NC(=O)[C@H](CCCNC(=N)N)NC(=O)[C@@H](NC(=O)[C@@H](NC(=O)[C@H](CCCNC(=N)N)NC(=O)[C@H](CCCNC(=N)N)NC(=O)[C@@H](NC(=O)[C@H](Cc1c[nH]c2ccccc12)NC(=O)[C@H](CCCNC(=N)N)NC(=O)[C@H](CCCNC(=N)N)NC(=O)[C@@H](NC(=O)[C@H](CCCNC(=N)N)NC(=O)[C@H](CCCNC(=N)N)NC(=O)[C@@H](NC(=O)[C@H](Cc1c[nH]c2ccccc12)NC(=O)[C@H](CCCNC(=N)N)NC(=O)[C@@H](N)CCCNC(=N)N)C(C)C)C(C)C)C(C)C)C(C)C)C(C)C)C(C)C)C(C)C)C(=O)N[C@@H](CCCNC(=N)N)C(=O)N[C@@H](CCCNC(=N)N)C(=O)O` [WLBU2] (H-RRWVRRVRRWVRRVVRVVRRWVRR-OH; N-terminus and C-terminus assumed) showed an MIC ([1]; read-out: MIC) of 8 µM (≈ 27.2 µg/mL), an MIC [2] of 4 µM (≈ 13.6 µg/mL) and an MIC ([3]; read-out: MIC) of 4 µM (≈ 13.6 µg/mL).

`CC[C@H]1OC(=O)[C@H](C)[C@@H](O[C@H]2C[C@@](C)(OC)[C@@H](O)[C@H](C)O2)[C@H](C)[C@@H](O[C@@H]2O[C@H](C)C[C@H](N(C)C)[C@H]2O)[C@](C)(O)C[C@@H](C)C(=O)[C@H](C)[C@@H](O)[C@]1(C)O` [Erythromycin, erythromycin] showed an MIC ([1]; Acinetobacter baumannii, LB medium, 1×10^3 CFU/ml, 37° C., 18 to 24 hours, read-out: MIC) greater than 256 µM, an MIC [2, 5] greater than 64 µM and an MIC ([3]; Staphylococcus aureus, LB medium, 1×10^3 CFU/ml, 37° C., 18 to 24 hours, read-out: MIC) greater than 128 µM.

B1: WLBU2-R-3: SELEX aptamer specific to WLBU2, SEQ No. 4 (nucleic acid)
DNA: AAAACGACGGCCAGTGCGCGCGCTTTGCTTGTGTGAGCATTGCTTTTGCATTATTGGTTTGGTTGGTGTGGTTCGTGCGCGCCATGGTCATAGCTGT
modifications: listed as DNA, chemistry not fully specified
Work on B1 yielded a FoldChange [4] of 2.7.

B2: WLBU2-R-2: SELEX aptamer specific to WLBU2, SEQ No. 3 (nucleic acid)
DNA: AAAACGACGGCCAGTGGCTGGTAGGTTTGGGTGGTTTGGTTGGGATTCGGTTGGTTGGTACCAGCCATGGTCATAGCTGT
modifications: listed as DNA, chemistry not fully specified
B2 gave a FoldChange [4] of 3.67.

B3: WLBU2-R: SELEX aptamer specific to WLBU2, SEQ No. 1 in Table 2; thiol-modified at 3′-terminal for binding to gold nanoparticles (nucleic acid)
DNA: AAAACGACGGCCAGTGCGCGCGCTTTGCTTGTGTGAGCATTGCTTTTGCATTATTGGTTTGGTTGGTGTGGTTCGTGCGCGCCATGGTCATAGCCTGT
modifications: DNA, 3' {SH}, backbone and methylation of C not given here
B3 showed a FoldChange [4] of 2.2.

B4: WLBU2-R-1: SELEX aptamer specific to WLBU2, SEQ No. 2 (nucleic acid)
DNA: AAAACGACGGCCAGTCTTTCGCGGGGTCTGGGGTTGGGGTTGTGGGTTAATTGCACTTCGAAATGCATGGTCATAGCTGT
modifications: listed as DNA, chemistry not fully specified
B4 was tested, and the FoldChange [4] was 3.28.
